The subject of the assay is MDCK-II. The assay can be described thus: TP_TRANSPORTER: transepithelial transport in OATP1B3/MRP2 double transfectant (MDCKII). It counts as functional, cell-based.
In the case of `O=C1OC(c2ccc(O)c(S(=O)(=O)O)c2)(c2ccc(O)c(S(=O)(=O)O)c2)c2c(Br)c(Br)c(Br)c(Br)c21`, the Activity result was “substrate []”.
Under `CCCCC/C=C\C\C=C/C=C/C=C/[C@@H](SC[C@@H](NC(=O)CC[C@H](N)C(=O)O)C(=O)NCC(=O)O)[C@@H](O)CCCC(=O)O` stands “substrate []”.
Under `C[C@]12CC[C@@H]3c4ccc(O)cc4CC[C@H]3[C@@H]1CC[C@@H]2O[C@@H]1O[C@H](C(=O)O)[C@@H](O)[C@H](O)[C@H]1O` stands “substrate []”; under `Cc1ccc(N(CC(=O)O)CC(=O)O)c(OCCOc2cc(-c3c4cc(Cl)c(=O)cc-4oc4cc(O)c(Cl)cc34)ccc2N(CC(=O)O)CC(=O)O)c1`, “substrate []”; under `C[C@]12CC[C@H](OS(=O)(=O)O)CC1=CC[C@@H]1[C@@H]2CC[C@]2(C)C(=O)CC[C@@H]12`, “substrate []”.
In the case of `CO[C@H]1/C=C/O[C@@]2(C)Oc3c(C)c(O)c4c(O)c(c(/C=N/N5CCN(C)CC5)c(O)c4c3C2=O)NC(=O)/C(C)=C\C=C\[C@H](C)[C@H](O)[C@@H](C)[C@@H](O)[C@@H](C)[C@H](OC(C)=O)[C@@H]1C`, the Activity result was “substrate []”.

The values are drawn from ChEMBL document CHEMBL2073999, “Vectorial transport by double-transfected cells expressing the human uptake transporter SLC21A8 and the apical export pump ABCC2” (Mol Pharmacol, 2001).
